Reference: paper PMC11645267, “Novel pharmacologic inhibition of lysine-specific demethylase 1 as a potential therapeutic for glioblastoma” (Cancer Gene Therapy, 2024)

Columns and labels:
GSC1228 = assay: Cell proliferation assay (CellTiter-Glo 3D); type: cell-based; details: GSC1228, 96 h; read-out: Growth inhibitory IC50 (GI50)
Method: (§1) Supplementary materials and methods […]
(§2) Cell lines and culture conditions […]
(§3) 2013 #1009}{Katsushima, 2016 #1156}. GSC cells were cultured in Neurobasal Medium (Life Technologies, Carlsbad, CA, USA) containing N2 and B27 supplements (Life Technologies) along with human recombinant basic fibroblast growth factor and epidermal growth factor (20 ng/ml each; R&D Systems, Minneapolis, MN, USA). Cells were cultured at 37°C in a humidified incubator with 5% CO2.
(§4) For the cell proliferation assay, cells at a density of 1 × 10^5 cells per well were seeded before treatment with LSD1 inhibitors. Cell proliferation was measured after 4 days using a Cell Counting Kit 8 (Dojindo, Kumamoto, Japan) according to the manufacturer ’s […]
(§5) instructions. For GSC cells, the CellTiter-Glo 3D Viability Assay (Promega, Madison, WI, USA) was used to measure the living cells. […]

GSC222 = assay: Cell proliferation assay (CellTiter-Glo 3D); type: cell-based; details: GSC222, 96 h; read-out: Growth inhibitory IC50 (GI50)
Method: as §1, §2, §3, §4, §5

GSC316 = assay: Cell proliferation assay (CellTiter-Glo 3D); type: cell-based; details: GSC316, 96 h; read-out: Growth inhibitory IC50 (GI50)
Method: as §1, §2, §3, §4, §5

F3 = assay: Cell proliferation assay (Cell Counting Kit 8); type: cell-based; details: 96 h; F3 (normal neural stem cell line), 4 days; read-out: Growth inhibitory IC50 (GI50)
Description: as §1
(§6) Cell lines and culture conditions
(§7) Glioblastoma cell line, LN229, was obtained from the American Type Culture Collection (ATCC, Manassas, VA, USA). Normal fibroblast cell lines TIG3 and WI-38, TM31 (low grade glioma) were obtained from the RIKEN Bioresource Research Center (Tsukuba, Japan). Onda10 and KINGS1 (low grade glioma) cell lines were obtained from the Japanese Collection of Research Bioresources (Ibaraki, Japan). F3 is utilized as a neural stem cell line{Kim, 2004 #1412}{Natsume, 2013 #1009}. All cells were maintained in DMEM medium (Wako, Osaka, Japan) containing 5% fetal bovine serum (FBS, Thermo Fisher Scientific, Waltham, MA, USA) and 1% penicillin-streptomycin (Wako). […]
as §4, §5

KINGS1 = assay: Cell proliferation assay (Cell Counting Kit 8); type: cell-based; details: Homo sapiens, KINGS-1, 96 h; KINGS1 (grade III glioma), 4 days; read-out: Growth inhibitory IC50 (GI50)
Description: as §1, §6, §7, §4, §5

LN229 = assay: Cell proliferation assay (Cell Counting Kit 8); type: cell-based; details: Homo sapiens, LN-229, 96 h; LN229 (GBM cell line), 4 days; read-out: Growth inhibitory IC50 (GI50)
Description: as §1, §6, §7, §4, §5

Onda10 = assay: Cell proliferation assay (Cell Counting Kit 8); type: cell-based; details: 96 h; Onda10 (grade III glioma), 4 days; read-out: Growth inhibitory IC50 (GI50)
Description: as §1, §6, §7, §4, §5

TIG3 = assay: Cell proliferation assay (Cell Counting Kit 8); type: cell-based; details: Homo sapiens, TIG-3, 96 h; TIG3 (normal fibroblast), 4 days; read-out: Growth inhibitory IC50 (GI50)
Description: as §1, §6, §7, §4, §5

TM31 = assay: Cell proliferation assay (Cell Counting Kit 8); type: cell-based; details: 96 h; TM31 (grade III glioma), 4 days; read-out: Growth inhibitory IC50 (GI50)
Description: as §1, §6, §7, §4, §5

WI38 = assay: Cell proliferation assay (Cell Counting Kit 8); type: cell-based; details: Homo sapiens, WI-38, 96 h; WI38 (normal fibroblast), 4 days; read-out: Growth inhibitory IC50 (GI50)
Description: as §1, §6, §7, §4, §5

LSD2 = biological target: T1, LSD2 (Homo sapiens, UniProt Q8NB78); set-up: method as in PMID 32166890; details: cited from earlier work
T1 sequence (Q8NB78 1-822): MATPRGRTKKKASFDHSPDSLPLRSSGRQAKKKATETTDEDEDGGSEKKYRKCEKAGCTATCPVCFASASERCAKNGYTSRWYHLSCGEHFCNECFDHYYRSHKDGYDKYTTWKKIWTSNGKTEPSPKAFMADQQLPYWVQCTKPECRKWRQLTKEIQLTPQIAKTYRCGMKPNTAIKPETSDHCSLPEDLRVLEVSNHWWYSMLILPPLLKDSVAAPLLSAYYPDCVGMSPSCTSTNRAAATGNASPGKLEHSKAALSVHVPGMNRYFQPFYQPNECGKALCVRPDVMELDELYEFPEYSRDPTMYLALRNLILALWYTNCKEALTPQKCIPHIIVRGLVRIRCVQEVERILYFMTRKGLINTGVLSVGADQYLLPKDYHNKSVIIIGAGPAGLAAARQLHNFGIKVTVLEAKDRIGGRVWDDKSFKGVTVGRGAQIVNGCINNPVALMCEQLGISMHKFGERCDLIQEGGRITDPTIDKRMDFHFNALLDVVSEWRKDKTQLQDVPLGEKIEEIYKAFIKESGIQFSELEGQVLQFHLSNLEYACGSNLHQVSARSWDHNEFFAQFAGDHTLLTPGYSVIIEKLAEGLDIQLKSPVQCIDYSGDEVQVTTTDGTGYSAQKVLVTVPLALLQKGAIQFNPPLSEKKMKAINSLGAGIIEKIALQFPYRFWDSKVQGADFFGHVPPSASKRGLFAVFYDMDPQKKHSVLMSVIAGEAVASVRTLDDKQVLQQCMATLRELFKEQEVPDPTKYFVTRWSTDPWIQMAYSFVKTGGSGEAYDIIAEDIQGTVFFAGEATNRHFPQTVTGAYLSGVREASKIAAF

MAO-A = biological target: T2, MAO-A (Homo sapiens, UniProt P21397); details: cited from earlier work
T2 sequence (P21397 1-527): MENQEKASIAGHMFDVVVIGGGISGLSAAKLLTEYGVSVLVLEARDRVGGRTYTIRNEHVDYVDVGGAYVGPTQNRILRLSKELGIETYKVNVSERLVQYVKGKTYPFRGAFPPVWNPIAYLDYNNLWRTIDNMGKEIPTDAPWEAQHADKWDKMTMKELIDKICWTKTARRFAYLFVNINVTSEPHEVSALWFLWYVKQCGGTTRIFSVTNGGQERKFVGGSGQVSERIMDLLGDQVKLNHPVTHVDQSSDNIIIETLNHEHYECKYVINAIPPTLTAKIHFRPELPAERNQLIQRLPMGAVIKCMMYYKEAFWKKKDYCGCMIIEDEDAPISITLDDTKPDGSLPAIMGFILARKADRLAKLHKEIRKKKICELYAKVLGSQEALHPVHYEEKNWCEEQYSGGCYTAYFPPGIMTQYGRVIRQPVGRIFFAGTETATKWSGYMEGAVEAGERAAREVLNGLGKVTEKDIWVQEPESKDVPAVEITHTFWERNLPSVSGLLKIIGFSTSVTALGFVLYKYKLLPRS

MAO-B = biological target: T3, MAO-B (Homo sapiens, UniProt P27338); details: cited from earlier work
T3 sequence (P27338 1-520): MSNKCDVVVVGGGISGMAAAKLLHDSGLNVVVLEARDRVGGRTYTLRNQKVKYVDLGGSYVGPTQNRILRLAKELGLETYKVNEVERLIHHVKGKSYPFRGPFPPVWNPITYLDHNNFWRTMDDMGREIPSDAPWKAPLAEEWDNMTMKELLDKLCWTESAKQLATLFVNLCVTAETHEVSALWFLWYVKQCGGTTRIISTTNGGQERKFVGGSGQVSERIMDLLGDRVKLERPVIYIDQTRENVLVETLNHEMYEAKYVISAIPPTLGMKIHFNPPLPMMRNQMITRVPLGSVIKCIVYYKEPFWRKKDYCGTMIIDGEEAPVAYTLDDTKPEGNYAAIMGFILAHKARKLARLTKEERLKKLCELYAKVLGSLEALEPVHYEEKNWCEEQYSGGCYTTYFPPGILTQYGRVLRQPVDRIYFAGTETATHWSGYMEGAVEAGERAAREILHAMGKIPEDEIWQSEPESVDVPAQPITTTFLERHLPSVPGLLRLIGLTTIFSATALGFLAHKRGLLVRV

SMILES	IC50 (GSC1228) [µM]	IC50 (GSC222) [µM]	IC50 (GSC316) [µM]	IC50 (F3) [µM]	IC50 (KINGS1) [µM]	IC50 (LN229) [µM]	IC50 (Onda10) [µM]	IC50 (TIG3) [µM]	IC50 (TM31) [µM]	IC50 (WI38) [µM]	Ki (LSD2) [µM]	Ki (MAO-A) [µM]	Ki (MAO-B) [µM]
NC1CC1c1cc(F)cc(F)c1OCc1ccccc1 (stereo not drawn) [S2101]	> 40	> 40	> 40	26	19	12	25	> 40	6.9	> 40	> 250		
CN1CCN(C(=O)CNC2CC2c2cc(F)cc(F)c2OCc2ccccc2)CC1 (stereo not drawn) [S2157]	19.7	> 40	> 40	36.5	> 40	> 40	> 40	33.3	27	> 40	> 250	> 250	> 250
